Here are results for eleven compounds from patent publication US4579867A, “Stable pharmaceutical compositions of short-acting β-adrenergic receptor blocking agents” (American Hospital Supply Corporation, priority 1984, dated 1986).

≈ marks a conversion by molar mass, not a printed value. Where “and” joins values, the source holds several entries; their conditions need not be identical. Identical values can stand only once. Like-named read-outs stand apart in the source and are kept apart here.

The pKa is the pH at which an ionisable group is half protonated. A lower pKa goes with a group that gives up its proton readily.

Data set [1] has as its system β-adrenergic receptor. The experiment in a line: β-blocking activity and recovery from β-blockade in anesthetized dogs (isoproterenol heart rate response, 3-hour infusion). The data set is classed as in vivo. Conditions: for Recovery Time 50%: 50% recovery from β-blockade after termination of infusion; for % I (percent inhibition of heart rate response to isoproterenol): end of 3-hour infusion, isoproterenol 0.5 μg/kg; for Potency: 3-hour infusion, rate adjusted to about 50% isoproterenol inhibition, pentobarbital-anesthetized dogs. On the procedure:
The duration of β-blockade was determined in vivo using pentobarbital-anesthetized dogs instrumented for measurement of heart rate using a Beckman cardiotachometer triggered electronically by a phasic aortic blood pressure signal. Both vagus nerves were severed in the cervical region and the animals were mechanically ventilated. The experimental design used employed a 3-hour infusion of test compound. Bolus doses of isoproterenol (0.5 μg/kg) were used to assess the degree of β-blockade and recovery from β-blockade after […] of the infusion. The doses were spaced at 10-minute intervals and were given before, during and following the infusion of test compounds. The infusion rate was adjusted so that at the end of the 3-hour infusion period the degree of isoproterenol inhibition averaged about 50% of control.

The nature of data set [2]: Solubility in various vehicles (HPLC). The data set is classed as physicochemical. Here is the method: Initially, the solubility of the compound was determined in various vehicles. The amount dissolved was measured by HPLC (Table 2). […] Based on this acidic nature, a tartrate buffer was selected. It was foun that the molar ratio of active β-blocking agent to buffer was critical, 1:1 to 3:1 to stabilized product.
Samples were dissolved or diluted with the mobile phase, methanol--pH 3.4 phosphate buffer solution. The resulting solutions were diluted with benzoic acid internal standard solution and chromatographed on a octadecyl silane column with detection at 229 nm. […] The method is linear, quantitative, rugged and reproducible with a sensitivity of 2 ug/ml. Either peak height or peak area ratios can be used for quantitation.

Data set [3] is described as follows: Comparison of degradation in aqueous solution and in the formulation (forced degradation, HPLC). Conditions: 75° C.; for degraded at 168 h: one week. The data set is classed as physicochemical. Here is the method:
The sulfate salt of the compound of Formula II in aqueous solution when stored at 75° C. degraded about 70% in one week. In contrast, when formulated in the pharmaceutical composition as noted and placed under the same storage conditions, it degraded only about 25%.
The results of this comparison are represented in FIG. 5. Samples for the study were prepared and tested as follows:
b. Aqueous at 75° C.--10 mg of sulfate salt of Formula II were dissolved in 100 mL of deionized water. A 2 mL portion of this solution was transferred to a vial and placed in a 75° C. oven. A series of vials were prepared and evaluated at various intervals. Each time 2 mL of mobile phase was added to the vial (final conc. 50 μg/mL) for subsequent HPLC evaluation. The results are plotted as curve B in FIG. 5.
c. Forced Degradation of the Formulation was carried out using a solution containing the sulfate salt of Formula II, 100 mg/mL, in Acetate Buffer (0.35M) containing 20% of Propylene Glycol:Ethanol (50:50) having a pH 3.17. The formulation solution was divided into 2 parts, placed in 55° C. and 75° C. ovens and tested periodically. To evaluate the formulation, the solution was diluted 1 mL to 100 mL of mobile phase, then 5 mL to 100 mL in mobile phase (final conc.--50 μg/mL) for subsequent HPLC evaluation.
The rates of decomposition were monitored by HPLC and compared to the respective initial concentrations at 220 nm. In order to insure that the peak was that of the sulfate salt and not an impurity, excipient or product of decomposition, the peak was scanned using a variable wavelength detector ([…]). Using the Perkin-Elmer LC-75 Detector Stop Flow System described below:
A 70 μL portion of the sulfate salt degraded samples were injected manually into the HPLC L-75 equipped with a variable wavelength detector, programmed to scan wavelengths from 200 to 320 nm. When the sulfate salt reached the detector cell, the flow of mobile phase was stopped and the scan initiated from 200 to 320 nm. In this manner, only the peak corresponding to the sulfate salt was measured.

The nature of data set [4]: pKa. The data set is classed as physicochemical.
A short description of data set [5]: Kinetic degradation study in solution at 75° C. The data set is classed as physicochemical. Here is the method:
In order to determine the pH at which the formulation would show maximum stability, a kinetic degradation study was employed. pH of solutions ranging from 2-4, containing 0.1M each of the compound of formula II and tartrate buffer were stored at 75° C. At various time intervals, samples were taken and assayed for the compound.
The kinetic data obtained was plotted as a log of drug concentration versus time. The apparent first-order rate constants were calculated from the slopes of the linear regression lines fitted to log (C)=log (Co)[…] where C is drug concentration at time t, Co is the initial drug concentration and k is the apparent first-order rate constant.
The logarithm of the potency versus time in all cases produced linear plots. The apparent first-order rate constants were calculated from the slopes of the linear regression lines (not shown) and are presented in FIG. 1.
The ratio of the two organic vehicles, namely propylene glycol and alcohol were determined by making solutions of the compound of formula II in the vehicle and testing the stability at 75° C. Samples were removed after specified times and measured for potency.
FIG. 3 illustrates the stability of the compound of formula II in hydroalcoholic solution buffered at pH 3 by sodium tartrate. An identical stability study was conducted with a solution without buffering agent (FIG. 4).

Data set [6] in a line: Shelf life / storage stability of solutions. The data set is classed as physicochemical. Conditions: within a week; room temperature; without stabilization; read-out: potency loss.

Turning to `O=C(CC1CCCCC1)NCCNCC(O)COC(=O)c1ccccc1F` (centres unmarked) [Compound 8], in data set [1] (dogs), the “Recovery Time 50%” value is on record as 3,4 min; the “% I (percent inhibition of heart rate response to isoproterenol)” value was 43% and 55%.
On to `CCOC(=O)NCC(C)(C)NCC(O)COC(=O)c1ccccc1F` (centres unmarked) [Compound 21], for which the Potency in data set [1] is recorded as 6.5 ± 1.8 mg/kg/180 min.
With `CC(C)(CNC(N)=O)NCC(O)COC(=O)c1ccccc1F` (centres unmarked) [Compound 17], in data set [1], the Potency is 0.7 mg/kg/180 min.
With `CC(C)NCC(O)COc1cccc2ccccc12` (centres unmarked) [Propranolol, reference compound], in data set [1], the Potency stood at 0.2 mg/kg/180 min. Besides, the “% I (percent inhibition of heart rate response to isoproterenol)” value in data set [1] (dogs) was found to be 67 ± 6%.
On to `CC(C)(CNC(N)=O)NCC(O)COC(=O)c1ccccc1F` (centres unmarked), for which the Solubility in data set [2] (Alcohol USP (EtOH)) was 2.24 % w/w; in data set [2] (Polyethylene Glycol 200 USP (PEG)), 2.64 % w/w; in data set [2] (Propylene Glycol USP (PG)), 3.47 % w/w; in data set [2] (WFI (5%), EtOH (45%), PEG (50%)), 5.21 % w/w; in data set [2] (WFI (5%), EtOH (45%), PG (50%)), 7.20 % w/w; in data set [2] (WFI (5%), EtOH (95%)) it was 7.50 % w/w. For the same compound, the Solubility in data set [2] (WFI (5%), PEG (95%)) was 3.83 % w/w; in data set [2] (WFI (5%), PG (95%), read-out: Solubility), 56 mg/mL (≈ 171 mM); in data set [2] (Water for Injection USP (WFI), read-out: Solubility), 507 mg/mL (≈ 1550 mM). In addition, the degraded at 168 h in data set [3] (formulated in the pharmaceutical composition) is ~25%; in data set [3] (aqueous solution (deionized water), aqueous solution), ~70%. For the same compound, the increase in stability entry in data set [3] (formulated vs aqueous solution) is recorded as “three fold increase in stability”.
For `CC(C)(CNC(=O)C1CCCCC1)NCC(O)COC(=O)c1ccccc1F` (centres unmarked) [Compound 7], the Potency in data set [1] is listed as 1.8 mg/kg/180 min. Besides, in data set [1] (dogs), the “Recovery Time 50%” value came to 8 min and the “% I (percent inhibition of heart rate response to isoproterenol)” value stood at 68%. Further, in data set [1] (80% recovery from β-blockade after termination of infusion, dogs), the “Recovery Time 80%” value is 19 min.
For the compound `CC(C)(CNC(=O)N1CCOCC1)NCC(O)COC(=O)c1ccc(O)c(O)c1` (centres unmarked) [Compound 12], the Potency in data set [1] is on record as 0.08 mg/kg/180 min.
The same measure, in the same setting: then `CC(C)C(=O)NCC(C)(C)NCC(O)COC(=O)c1ccccc1F` (centres unmarked) [Compound 5], with 0.6 mg/kg/180 min.
In the case of `CC(C)(CNC(N)=O)NCC(O)COC(=O)c1ccccc1F` (centres unmarked) [compound of formula II, N-(1,1-Dimethyl-2-ureidoethyl)-2-hydroxy-3-(O-fluorobenzoyloxy) propylamine], the pKa in data set [4] is 8.17. For the same compound, the “propylene glycol to alcohol ratio and degradation” value in data set [5] (FIG. 2) is on record as 1:1 ratio of the two substances minimizes degradation. For the same compound, the “rate of degradation (slope)” value in data set [5] (hydroalcoholic solution (15% propylene glycol, 15% alcohol) buffered at pH 3 by sodium tartrate) stood at 0.0387 day⁻¹; in data set [5] (hydroalcoholic solution (15% propylene glycol, 15% alcohol), unbuffered) it was 0.0709 day⁻¹. The “stability of buffered relative to unbuffered preparation” value in data set [5] (pH 3 sodium tartrate vs no buffer) is recorded as “approximately twice as stable”. For the same compound, in data set [6], the degraded at 168 h worked out at 10%.
As to `CC(=O)NCC(C)(C)NCC(O)COC(=O)c1ccccc1F` (centres unmarked) [Compound 4], the Potency in data set [1] came to 2.7 mg/kg/180 min.
Still for that read-out and setting: then `CC(C)(CNC(=O)C1CCCCC1)NCC(O)COC(=O)c1ccccc1F` (centres unmarked) [Compound 6], with 1.4 mg/kg/180 min.
